Laboratory results reported in patent publication US20100144779A1, “Marine Alkalod Makaluvamines and Derivatives Thereof” (THE UAB RESEARCH FOUNDATION, priority 2007, published 2010).
pIC50: −log10 of the molar value. Read-outs that look alike come from different tables or passages of the source.

Key:
Type in all cases: cell-based, human
[1] = tested on: H358; assay: MTT growth inhibition assay; conditions: 72 hr, read-out: Growth inhibitory activity (IC50)
Protocol: (§1) Several of the disclosed compounds were also tested for their ability to inhibit the growth of other cancer cell lines as shown in Tables 4 and 5. The cell lines were obtained from the American Type Culture Collection (Rockville, Md.) and were grown as follows: MCF-7 (p53 wt) breast cancer cells were grown in DMEM media containing 1 mM non-essential amino acids, Earle's BSS, 1 mM Na pyruvate, and 10 mg/L bovine insulin. MDA-MB-468 (p53 mt) cells were grown in DMEM/F-12 Ham's media (1:1 mixture); H838 (p53 wt) cells were grown in RPMI 1640. H358 (p53 null), H1299 (p53 null) cells were grown in RPMI 1640 supplemented with 1.5 g/L Na2CO3; 4.5 g/L glucose, 10 mM HEPES buffer, 1 mM Na pyruvate and 2 mM L-glutamine. A549 (p53 wt) cells were grown in Ham's F12K medium supplemented with 2 mM L-glutamine and 1.5 g/L Na2CO3; LNCaP (p53 wt) cells were grown in RPMI 1640 supplemented with 1.5 g/L Na2CO3, 4.5 g/L glucose, 10 mM HEPES buffer, 1 mM Na pyruvate and 2 mM L-glutamine. PC3 (p53 null) cells were cultured in Ham's F-12K medium containing 2 mM L-glutamine. TRAMP Cl cells were cultured in DEME medium with 4 mM L-glutamine adjusted to contain 1.5 g/L sodium bicarbonate and 4.5 g/L glucose supplemented with 0.005 mg/ml bovine insulin and 10 nM dehydroisoandrosterone, 5% fetal bovine serum and 5% Nu-Serum IV; HPAC (p53 wt) pancreatic cancer cells were grown in a 1:1 mixture of DMEM and Ham's F12 medium containing 1.2 g/L Na2CO3, 2.5 mM L-glutamine, 15 mM HEPES and 0.5 mM Na pyruvate supplemented with 0.002 mg/mL insulin, 5 μg/mL transferrin, 40 ng/mL hydrocortisone, 10 ng/mL epidermal growth factor and 5% fetal bovine serum. PANC-1 (p53 mt) cells were cultured with RPMI 1640 containing 1 mM HEPES buffer, 25 μg/mL gentamicin, 1.5 g/L Na2CO3 and 0.25 μg/mL amphotericin B. BxPC-3 (p53 mt) cells were grown in RPMI 1640 medium, MiaPaCa-2 (p53 mt) and S2013 (p53 mt) cells were grown in DMEM, cell line CFPAC1 (p53 mt) was grown in Iscove's MEM supplemented with 4 mM L-glutamine; T98G (p53 mt) glioma cells were cultured with DMEM supplemented with 1% Na pyruvate, and 1% non-essential amino acids; HCT116 human colon cancer cell lines were kindly provided by Dr. Bert Vogelstein (Johns Hopkins Oncology Center, Baltimore, Md.). The HCT116 cell line was maintained in McCoy's-5A media; Human bronchial epithelial cell line BEAS 2B was cultured in DMEM medium; Human mammary epithelial cell line MCF10A was cultured in a 1:1 mixture of DMEM and Ham's F12 medium containing 5% horse serum, 15 mM hepes buffer, 10 ug/ml insulin, 20 ng/ml EGF, 100 ng/ml choleratoxin and 0.5 ug/ml hydrocortisone; the human primary fibroblast cell lines IMR90-EEA and IMR90-E1A (transformed using the adenoviral oncogene E1A) were gifts from Dr. S. Lee (Harvard University, Boston, Mass.). IMR90 and IMR90-E1A cells were cultured in DMEM medium.
(§2) All media contained 10% FBS and 1% penicillin/streptomycin unless otherwise specified. The effects of disclosed compounds on human cancer cell growth, expressed as the percentage of cell survival, were determined by the MTT [3-(4,5-Dimethyl-2-thiazolyl)-2,5-diphenyl-2H-tetrazolium bromide] assay. Cells were grown in 96-well plates and exposed to the test compounds (0, 0.01, 0.1, 1, 10, 100 μM) for 72 hr followed by addition of 10 μL MTT solution (5 mg/mL; Sigma; St. Louis, Mo.) to each well. The plates were incubated for 2-4 hr at 37° C. The supernatant was then removed and formazan crystals were dissolved with 100 μL of DMSO. The absorbance at 570 nm was recorded with an OPTImax microplate reader (Molecular Devices; Sunnyvale, Calif.). The cell survival percentages were calculated by dividing the mean OD of compound containing wells by that of DMSO-control wells. Three separate experiments were accomplished to determine the IC50.

[2] = tested on: HPAC; assay: MTT growth inhibition assay; conditions: cancer cell, 72 hr, read-out: Growth inhibitory activity (IC50)
Protocol: as §1, §2

[3] = tested on: MCF10A; assay: MTT growth inhibition assay; conditions: normal cells, 72 hr, read-out: Growth inhibitory activity (IC50)
Protocol: as §1, §2

[4] = tested on: MDA-MB-468; assay: MTT growth inhibition assay; conditions: MDA-MB-468, cancer cell, 72 hr, read-out: Growth inhibitory activity (IC50)
Protocol: as §1, §2

[5] = tested on: Mia-paca; assay: MTT growth inhibition assay; conditions: 72 hr, read-out: Growth inhibitory activity (IC50)
Protocol: as §1, §2

[6] = tested on: Panc-1; assay: MTT growth inhibition assay; conditions: Panc-1, cancer cell, 72 hr, read-out: Growth inhibitory activity (IC50)
Protocol: as §1, §2

[7] = tested on: S2013; assay: MTT growth inhibition assay; conditions: S2013, cancer cell, 72 hr, read-out: Growth inhibitory activity (IC50)
Protocol: as §1, §2

[8] = tested on: p21; assay: Protein expression, Western blot in MCF-7 cells; conditions: 1 μM, 6 h (FIG. 4A)
Protocol: In FIG. 4A, MCF-7 cells were exposed to 1 μM concentration of the indicated compounds for 6 hours. Western blots were probed with antibodies specific for the proteins indicated. Numbers below each lane show densitometry readings for each lane as compared to control. […] Western blots were probed with antibodies specific for the proteins indicated.
To determine the disclosed compounds effect on protein expression in human breast cancer cells, cultured MCF-7 cells were exposed to various concentrations of the test compounds for 6 h (FIG. 4A) or 24 h (FIG. 4B). Cell lysates were fractionated with identical amounts of protein by SDS-PAGE and transferred to Bio-Rad trans-Blot nitrocellulose membranes (Bio-Rad Laboratories, Hercules, Calif.). The nitrocellulose membrane was incubated in blocking buffer (Tris-buffered saline containing 0.1% Tween 20 and 5% nonfat milk) for 1 h at room temperature, then with the appropriate primary antibody overnight at 4° C. or 2 h at room temperature with gentle shaking. Finally, the membrane was washed three times with the washing buffer (Tris-buffered saline containing 0.1% Tween 20) for 15 min, incubated with goat anti mouse/rabbit IgG-horseradish peroxidase-conjugated antibody (Bio-Rad) for 1 h at room temperature, and washed again (in triplicate). The protein of interest was detected by enhanced chemiluminescence reagents from PerkinElmer LAS, Inc (Boston, Mass.).

[9] = Homo sapiens, NCI-H358, H358, cancer cell
[10] = Homo sapiens, MIA PaCa-2, cancer cell

Compound	pIC50 [1, 9]	pIC50 ([2]; Homo sapiens)	pIC50 ([3]; Homo sapiens, MCF-10A)	pIC50 ([4]; Homo sapiens)	pIC50 [5, 10]	pIC50 ([6]; Homo sapiens)	pIC50 ([7]; Homo sapiens)	expression of p21 [8]	pIC50 ([1]; H358, cancer cell)	pIC50 [2]	pIC50 [3]	pIC50 [4]	pIC50 ([5]; cancer cell)	pIC50 [6]	pIC50 [7]
COc1ccc(CCNC2=CC3=NCCc4c[nH]c(c43)C2=O)cc1OC.O=C(O)C(F)(F)F [Compound 20]	6.01	5.54	5.47	6.56	5.88	6.14	4.53	decreased the expression							
O=C(O)C(F)(F)F.O=C1C(NCCc2ccc3c(c2)OCO3)=CC2=NCCc3c[nH]c1c32 [Compound 6]	5.92	5.53	4.88	6.37	5.56	6.23	4.95								
O=C(O)C(F)(F)F.O=C1C(NCc2ccc(F)cc2)=CC2=NCCc3c[nH]c1c32 [Compound 28]	6.77	6.27	5.27	6.90	6.50	6.98	5.35	decreased the expression							
O=C1C(NCCc2ccccc2)=CC2=NCCc3c[nH]c1c32 [Compound 4d]								increased the expression	6.40	5.95	5.17	7.00	6.01	6.59	5.27
O=C1C(NCc2ccccc2)=CC2=NCCc3c[nH]c1c32 [Compound 4c]								decreased the expression	6.36	6.16	5.28	6.90	6.46	6.85	5.41
